The values that follow come from patent EP4556003A1, “ANTI-OBESITY AND ANTI-DIABETIC ACTIVITY OF BROMINATED DITERPENES FROM RED ALGAE OF THE GENUS LAURENCIA AND APPLICATIONS THEREOF” (priority 2023, dated 2025).

Data set [1] concerns 3T3-L1 adipocytes. The data set can be described thus: Oil red o staining of intracellular lipid accumulation. It is filed as cell-based, Mouse. The protocol: Mouse 3T3-L1 preadipocytes were maintained in proliferation medium containing DMEM supplemented with 10% (v/v) heat inactivated NBCS and 1% (v/v) penicillin-streptomycin at 37 °C with 5% CO2, humidified atmosphere. Cells were seeded in T-75 flasks at a density of 25×10^4 cells/flask. Cultures never became completely confluent according to the manufacturer's instructions. They were passaged using trypsin-EDTA solution once they reached 70-80% confluency. For differentiation, 3T3-L1 cells were seeded and after 24 h (day 1), cell differentiation was induced by changing the medium to high glucose DMEM containing 10% (v/v) heat inactivated FBS, 1% penicillin-streptomycin, 10 µg/mL insulin, 0.25 µM Dexamethasone (GAP), 0.5 mM IBMX (=differentiation medium I). On day 3, the medium was changed to high glucose DMEM containing 10% FBS, 1% penicillin- streptomycin, and 10 µg/mL insulin (=differentiation medium II). Thereafter, medium was changed every other day switching between differentiation medium I and differentiation medium II until day 12 or 23, when adipocytes were harvested. Control group preadipocytes were seeded at a higher density and harvested after two days. Test compounds were administered either at the initiation of differentiation, or after 15 days of differentiation and with every medium change. To determine the effect on preadipocyte differentiation, cells were seeded and after 24 h they were treated with neorogioldiol. Neorogioldiol was maintained in the culture medium throughout cell differentiation period. To determine the effect of neorogioldiol on mature adipocytes, cells were seeded and induced to differentiate for 14 days, then on day 15 neorogioldiol was added to the differentiation medium for 24 h before cells were harvested. Each compound used was diluted in a 90% carbowax™ 400, 10% (v/v) absolute ethanol solution serving as a control solvent. The final concentration in culture was 0.09% (v/v) carbowax and 0.01% (v/v) ethanol. […]
Oil red o staining was applied to measure lipid accumulation intracellularly. Briefly, after 12 or 23 days of differentiation, the cell culture medium was removed and the 3T3-L1 adipocytes were fixed in 3.7% formaldehyde for 60 min at room temperature. Next, a solution of 0.21% oil red o was filtered using a 0.45 µm filter followed by incubation of the fixed cells for 45 min at room temperature. Excess dye was removed and cells were washed twice with PBS. Fresh PBS was added and the lipid droplets within the differentiated 3T3-L1 cells were visualized and photographed by microscopy. For quantitative analysis, oil red o staining was eluted with 100% isopropanol and the absorbance was measured at 510 nm using the Infinite® 200 PRO microplate plate reader (Tecan, Zurich, Switzerland).

Data set [2] in a line: Serum biochemical toxicity markers in high fat diet-fed mice. Conditions: intraperitoneal 0.25 mg/mouse every 48 h for 35 days; vs control group. It is filed as in vivo, C57BL/6 adult male mice. The method, then:
All procedures were conducted in compliance with protocols approved by the Animal Care Committee of the University of Crete, School of Medicine (Facility number EL91-BIOexp-06), in conjunction with the Veterinary Department of the Region of Crete, Heraklion, Crete, Greece. C57BL/6 adult male mice were maintained in a 12 h day/night cycle and 21-23 °C conditions. Mice were provided with water and either normal fat diet, or high fat diet (60% energy from fat) ad libitum. All mice were weighed every 48 h.
Neorogioldiol was first dissolved in 90% carbowaxTM 400, 10% (v/v) absolute ethanol solution and then diluted 1:10 in water for injection. A dose of 0.25 mg neorogioldiol in a total volume of 200 µl was administered intraperitoneally every 48 h in mice in high fat + neorogioldiol group starting from day 1. 4-5 mice were used per group and each experiment was performed twice.
To detect serum levels of alanine transaminase, aspartate transaminase, creatine phosphokinase and lactate dehydrogenase, serum was collected from peripheral blood via cardiac puncture under isoflurane anesthesia. Serum samples were stored at -80 °C. The levels of alanine transaminase, aspartate transaminase, creatine phosphokinase and lactate dehydrogenase were measured by standard enzymatic procedures using an automated biochemical analyzer AU5800 (Beckman).

As for neorogioldiol, the lipid accumulation entry in data set [1] (differentiation in presence of serial concentrations 62.5, 31.25, 15.625, 7.81 and 3.9 µM, dose-dependent) is “reduced lipid accumulation”. The lipid accumulation entry in data set [1] (differentiation induced in the presence of compound, after 12 days, 1 at 62.5 µM, 2 at 25 µM) is “significantly reduced lipid accumulation”. The lipid accumulation entry in data set [1] (mature adipocytes: differentiated 15 days, then 62.5 µM for 8 more days) is “decreased lipid accumulation”. For the same substance, in data set [2], the “alanine transaminase in serum” value is listed as “No difference”, the “aspartate transaminase in serum” value was “No difference”, the “creatine phosphokinase in serum” value is on record as “No difference” and the “lactate dehydrogenase in serum” value is “No difference”.
